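Assay format: 96-well plates, 48-hour exposure. The concentration for 50% growth inhibition is given as GI50.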 The source made the active and inactive calls. No stated cut-off is given here; in the data, active = GI50 up to about 1.1 µM and inactive = higher. Residues, ends and D or L forms follow the SMILES beside them.
What was measured:
Experiment in all cases: inhibition of tumour cell growth, NCI panel, 48 h
TK-10 = tested on: TK-10
SF-539 = tested on: SF-539
786-0 = tested on: 786-0
UO-31 = tested on: UO-31
CCRF-CEM = tested on: CCRF-CEM
SK-OV-3 = tested on: SK-OV-3
MDA-MB-231 = tested on: MDA-MB-231
OVCAR-5 = tested on: OVCAR-5
Hs-578T = tested on: Hs-578T
Malme-3M = tested on: Malme-3M
SNB-19 = tested on: SNB-19
SK-MEL-5 = tested on: SK-MEL-5
LOX IMVI = tested on: LOX IMVI
SF-268 = tested on: SF-268
SR = tested on: SR
UACC-257 = tested on: UACC-257
IGROV-1 = tested on: IGROV-1
NCI/ADR-RES = tested on: NCI/ADR-RES
HCC 2998 = tested on: HCC 2998
MCF7 = tested on: MCF7

SMILES	GI50 (TK-10)	GI50 (SF-539)	GI50 (786-0)	GI50 (UO-31)	GI50 (CCRF-CEM)	GI50 (SK-OV-3)	GI50 (MDA-MB-231)	GI50 (OVCAR-5)	GI50 (Hs-578T)	GI50 (Malme-3M)	GI50 (SNB-19)	GI50 (SK-MEL-5)	GI50 (LOX IMVI)	GI50 (SF-268)	GI50 (SR)	GI50 (UACC-257)	GI50 (IGROV-1)	GI50 (NCI/ADR-RES)	GI50 (HCC 2998)	GI50 (MCF7)
CSc1nc(C#N)c(/N=C\N(C)C)n1C	> 100 µM (inactive)	> 100 µM (inactive)	> 100 µM (inactive)	> 100 µM (inactive)	> 100 µM (inactive)	> 100 µM (inactive)	> 100 µM (inactive)	> 100 µM (inactive)	> 100 µM (inactive)	> 100 µM (inactive)	> 100 µM (inactive)	> 100 µM (inactive)	> 100 µM (inactive)	> 100 µM (inactive)	> 100 µM (inactive)	> 100 µM (inactive)	> 100 µM (inactive)	> 100 µM (inactive)	–	–
CCOC(=O)c1c2ccc(/C=C/c3ccccc3)ccc-2c(C(=O)OCC)c1N	> 100 µM (inactive)	> 100 µM (inactive)	> 100 µM (inactive)	> 100 µM (inactive)	> 100 µM (inactive)	86.1 µM (inactive)	–	> 100 µM (inactive)	–	> 100 µM (inactive)	> 100 µM (inactive)	> 100 µM (inactive)	> 100 µM (inactive)	> 100 µM (inactive)	4.2 µM (inactive)	> 100 µM (inactive)	> 100 µM (inactive)	–	95.5 µM (inactive)	–
NCCc1ccc2oc3cc(=O)c4ccccc4c-3nc2c1	14 µM (inactive)	2.6 µM (inactive)	2.12 µM (inactive)	2.14 µM (inactive)	1.79 µM (inactive)	12.1 µM (inactive)	–	6.14 µM (inactive)	–	2.12 µM (inactive)	2.71 µM (inactive)	0.705 µM (active)	1.24 µM (inactive)	3.85 µM (inactive)	1.62 µM (inactive)	2.37 µM (inactive)	2.59 µM (inactive)	–	2.37 µM (inactive)	–
O=C(CC1S/C(=N\c2ccccc2Cl)NC1=O)Nc1ccc(Cl)cc1 (stereo unspecified)	> 100 µM (inactive)	> 100 µM (inactive)	> 100 µM (inactive)	> 100 µM (inactive)	> 100 µM (inactive)	> 100 µM (inactive)	–	> 100 µM (inactive)	–	> 100 µM (inactive)	> 100 µM (inactive)	> 100 µM (inactive)	99.3 µM (inactive)	> 100 µM (inactive)	31.3 µM (inactive)	> 100 µM (inactive)	> 100 µM (inactive)	–	> 100 µM (inactive)	–
CC(=O)NNc1nc(C)c(C(=O)NNC(=O)C(=O)Nc2c(Cl)cc([N+](=O)[O-])cc2Cl)s1	41.4 µM (inactive)	24.2 µM (inactive)	33 µM (inactive)	27.4 µM (inactive)	31.8 µM (inactive)	48.5 µM (inactive)	–	27.2 µM (inactive)	–	36.1 µM (inactive)	43.8 µM (inactive)	40 µM (inactive)	25.6 µM (inactive)	29.7 µM (inactive)	30.5 µM (inactive)	26.6 µM (inactive)	49.3 µM (inactive)	–	37.8 µM (inactive)	–
CC(=O)OCC1=C(C)C(OC(=O)C(OC(C)=O)[C@@H](NC(=O)c2ccccc2)c2ccccc2)CCC1(C)C (stereo partly specified)	> 100 µM (inactive)	> 100 µM (inactive)	> 100 µM (inactive)	> 100 µM (inactive)	> 100 µM (inactive)	> 100 µM (inactive)	> 100 µM (inactive)	> 100 µM (inactive)	–	> 100 µM (inactive)	> 100 µM (inactive)	> 100 µM (inactive)	> 100 µM (inactive)	> 100 µM (inactive)	> 100 µM (inactive)	> 100 µM (inactive)	> 100 µM (inactive)	> 100 µM (inactive)	> 100 µM (inactive)	> 100 µM (inactive)
C[N+](C)(C)CC1CCC/C1=N/O (stereo unspecified)	> 100 µM (inactive)	> 100 µM (inactive)	22.2 µM (inactive)	> 100 µM (inactive)	17.9 µM (inactive)	> 100 µM (inactive)	–	> 100 µM (inactive)	–	> 100 µM (inactive)	> 100 µM (inactive)	> 100 µM (inactive)	20.6 µM (inactive)	> 100 µM (inactive)	27.7 µM (inactive)	43 µM (inactive)	> 100 µM (inactive)	–	> 100 µM (inactive)	–
COC(=O)C1CC(=O)CCC1c1ccccc1 (stereo unspecified)	> 100 µM (inactive)	> 100 µM (inactive)	> 100 µM (inactive)	> 100 µM (inactive)	> 100 µM (inactive)	> 100 µM (inactive)	–	> 100 µM (inactive)	–	> 100 µM (inactive)	> 100 µM (inactive)	> 100 µM (inactive)	> 100 µM (inactive)	> 100 µM (inactive)	> 100 µM (inactive)	> 100 µM (inactive)	> 100 µM (inactive)	–	> 100 µM (inactive)	–
CCOC(=O)C1=C(C)Nc2ccccc2S1	> 100 µM (inactive)	> 100 µM (inactive)	> 100 µM (inactive)	> 100 µM (inactive)	> 100 µM (inactive)	> 100 µM (inactive)	–	> 100 µM (inactive)	–	> 100 µM (inactive)	> 100 µM (inactive)	> 100 µM (inactive)	94.8 µM (inactive)	> 100 µM (inactive)	> 100 µM (inactive)	> 100 µM (inactive)	> 100 µM (inactive)	–	> 100 µM (inactive)	–
CC(=O)NC(CO)C(=O)NC(Cc1ccc(O)cc1)C(=O)NCC(N)=O (stereo not drawn) (Ac-Ser-Tyr-Gly-NH2; configuration not given here)	> 100 µM (inactive)	> 100 µM (inactive)	> 100 µM (inactive)	> 100 µM (inactive)	> 100 µM (inactive)	> 100 µM (inactive)	> 100 µM (inactive)	> 100 µM (inactive)	–	> 100 µM (inactive)	> 100 µM (inactive)	> 100 µM (inactive)	> 100 µM (inactive)	> 100 µM (inactive)	> 100 µM (inactive)	> 100 µM (inactive)	> 100 µM (inactive)	> 100 µM (inactive)	> 100 µM (inactive)	> 100 µM (inactive)
C=C1C(OC(=O)/C=C/c2ccccc2)CC(OC(C)=O)C2(C)C1CC1CC(OC(C)=O)C(C)=C(C(OC(C)=O)C2OC(C)=O)C1(C)C (stereo unspecified)	> 100 µM (inactive)	> 100 µM (inactive)	> 100 µM (inactive)	> 100 µM (inactive)	5.25 µM (inactive)	> 100 µM (inactive)	–	> 100 µM (inactive)	–	> 100 µM (inactive)	> 100 µM (inactive)	4.1 µM (inactive)	> 100 µM (inactive)	> 100 µM (inactive)	3.97 µM (inactive)	–	> 100 µM (inactive)	–	7.71 µM (inactive)	–
O=[N+]([O-])c1cc([N+](=O)[O-])c(Nn2c3ccccc3c3ccccc32)c([N+](=O)[O-])c1	2.2 µM (inactive)	2.12 µM (inactive)	2.74 µM (inactive)	2.07 µM (inactive)	2.16 µM (inactive)	–	–	4.63 µM (inactive)	2.46 µM (inactive)	1.42 µM (inactive)	3.04 µM (inactive)	1.94 µM (inactive)	–	2.94 µM (inactive)	0.94 µM (active)	–	2.18 µM (inactive)	3.24 µM (inactive)	2.74 µM (inactive)	1.25 µM (inactive)
COc1cc(/C=C2\C(=O)N(c3ccc(NC(C)=O)cc3)C(c3ccccc3)S2(=O)=O)cc(OC)c1OC (stereo unspecified)	> 100 µM (inactive)	> 100 µM (inactive)	> 100 µM (inactive)	66.5 µM (inactive)	44.5 µM (inactive)	> 100 µM (inactive)	> 100 µM (inactive)	> 100 µM (inactive)	–	> 100 µM (inactive)	> 100 µM (inactive)	68.1 µM (inactive)	> 100 µM (inactive)	–	36.7 µM (inactive)	> 100 µM (inactive)	> 100 µM (inactive)	> 100 µM (inactive)	> 100 µM (inactive)	45.5 µM (inactive)
O=C1C2=Cc3ccccc3OC2(O)Oc2cc(O)ccc21 (stereo unspecified)	> 100 µM (inactive)	> 100 µM (inactive)	> 100 µM (inactive)	–	27.5 µM (inactive)	> 100 µM (inactive)	> 100 µM (inactive)	> 100 µM (inactive)	–	> 100 µM (inactive)	–	> 100 µM (inactive)	> 100 µM (inactive)	> 100 µM (inactive)	–	> 100 µM (inactive)	> 100 µM (inactive)	> 100 µM (inactive)	> 100 µM (inactive)	> 100 µM (inactive)
Clc1cc(Cl)c2ns[s+]c2c1Cl	> 100 µM (inactive)	> 100 µM (inactive)	> 100 µM (inactive)	> 100 µM (inactive)	> 100 µM (inactive)	> 100 µM (inactive)	–	> 100 µM (inactive)	–	37.8 µM (inactive)	> 100 µM (inactive)	> 100 µM (inactive)	> 100 µM (inactive)	> 100 µM (inactive)	> 100 µM (inactive)	> 100 µM (inactive)	> 100 µM (inactive)	–	> 10 µM (inactive)	–
CC(C)=C=CC(C)(C)NS(=O)(=O)NC(C)(C)C=C=C(C)C	> 100 µM (inactive)	> 100 µM (inactive)	> 100 µM (inactive)	–	–	> 100 µM (inactive)	–	> 100 µM (inactive)	> 100 µM (inactive)	> 100 µM (inactive)	> 100 µM (inactive)	> 100 µM (inactive)	> 100 µM (inactive)	89.3 µM (inactive)	18.4 µM (inactive)	> 100 µM (inactive)	> 100 µM (inactive)	> 100 µM (inactive)	25.5 µM (inactive)	> 100 µM (inactive)
